Results taken from patent publication US20240226107A1, “UBIQUITIN-SPECIFIC PROTEASE 1 (USP1) INHIBITOR” (SIMCERE ZAIMING PHARMACEUTICAL CO., LTD., priority 2021, published 2024).
Read-outs that look alike come from different tables or passages of the source.

Experiments:
[1] = Caco-2 permeability assay; type: in vitro ADME; details: human, pH 7.4
Procedure: The apparent permeability coefficient (Papp) of the analytical drug was determined by liquid chromatography-mass spectrometry (LC-MS/MS) through a Caco-2 cell model.
In this test example, Caco-2 cells were purchased from American Type Culture Collection (ATCC); 4-hydroxyethyl piperazine ethane sulfonic acid (HEPES) was purchased from Beijing Solarbio Science & Technology Co., Ltd.; Hanks' balanced salt solution (HBSS) and non-essential amino acids (NEAA) were purchased from ThermoFisher Scientific; penicillin, streptomycin, and trypsin/EDTA were purchased from Solarbio; fetal bovine serum (FBS) and DMEM medium were purchased from Corning; HTS-96-well Transwell plates and other sterile consumables were purchased from Corning; Millicell resistance measuring system was purchased from Millipore; Cellometer®K2 was purchased from Nexcelom Bioscience; Infinite 200 PRO microplate reader was purchased from Tecan; and MTS2/4 orbital shaker was purchased from IKA Labortechnik.
Caco-2 cells were cultured in a culture flask. […] Cells at a confluency of 70-90% can be used to inoculate the Transwell. Prior to cell inoculation, 50 μL of cell culture medium was added to each well of the upper Transwell chamber and 25 mL of cell culture medium was added to the lower plate. The plate was incubated in an incubator (37° C., 5% CO2) for 1 h, and then inoculated with cells. After cell digestion, the cell suspension was pipetted and transferred to a round bottom centrifuge tube for centrifugation at 120 g for 5 min. […] The medium was changed as follows: transwell chambers were separated from the receiver plate, medium in the receiver plate was discarded, then medium in the Transwell chambers was discarded, and finally, 75 μL of fresh medium was added to each chamber, and 25 mL of fresh medium was added to the receiver plate.
After approximately 14 days of culture, the Caco-2 cells reached the confluency and completed differentiation. In this case, the cells can be applied to permeability assay. The monolayer resistance was measured with a resistance meter (Millipore, USA) and the resistance per well was recorded. After the measurement, the Transwell plate was put back to the incubator. Calculation of resistance: measured resistance value (ohms)×membrane area (cm^2)=TEER value (ohm·cm^2); if TEER value <230 ohms·cm^2, the well can not be used for permeability assay.
In 900 mL of purified water, 2.38 g HEPES and 0.35 g sodium bicarbonate were dissolved, then 100 mL of 10×HBSS was added and stirred well, pH was adjusted to 7.4, and finally, the resulting solution was filtered to obtain 1 L of transport buffer (HBSS, 10 mM HEPES, pH 7.4).
A DMSO stock solution of 1 mM of compound to be tested was diluted with the transport buffer to obtain 5 μM test solution. The control compound digoxin or minoxidil was diluted with DMSO to 2 mM, and diluted with the transport buffer described above to 10 μM to obtain a control compound test solution. In addition, DMSO was also diluted with the transport buffer described above to a receiving end solution containing 0.5% DMSO.
The Transwell plate was removed from the incubator. Monolayer cell membranes were rinsed twice with the transport buffer (10 mM HEPES, pH 7.4) and incubated at 37° C. for 30 min.
The transport rate of the compound from the apical side to the basolateral side was determined. […]
The transport rate of the compound from the basolateral side to the apical side was determined.

CYP1A2 = CYP1A2 (Homo sapiens (Human), UniProt P05177); experiment: CYP enzyme inhibition in pooled human liver microsomes (phenacetin); type: in vitro ADME
Chain of CYP1A2 (P05177 whole entry): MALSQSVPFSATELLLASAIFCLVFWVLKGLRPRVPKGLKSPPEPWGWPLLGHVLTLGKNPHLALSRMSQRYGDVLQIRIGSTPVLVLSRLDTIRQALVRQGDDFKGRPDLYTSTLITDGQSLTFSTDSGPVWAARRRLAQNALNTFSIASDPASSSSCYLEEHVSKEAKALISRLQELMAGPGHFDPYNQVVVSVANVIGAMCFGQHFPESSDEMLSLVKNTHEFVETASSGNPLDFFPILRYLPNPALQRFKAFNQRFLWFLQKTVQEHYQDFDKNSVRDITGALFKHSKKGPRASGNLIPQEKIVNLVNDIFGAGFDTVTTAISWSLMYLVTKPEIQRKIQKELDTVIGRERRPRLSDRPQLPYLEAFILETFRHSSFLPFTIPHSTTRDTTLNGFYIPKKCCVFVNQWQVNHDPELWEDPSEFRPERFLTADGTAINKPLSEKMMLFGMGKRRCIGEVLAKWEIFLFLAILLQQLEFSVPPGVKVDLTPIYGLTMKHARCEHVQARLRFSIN
Procedure: (§1) Typical substrate metabolic responses of five major human CYP subtypes (CYP1A2, CYP2C9, CYP2C19, CYP2D6, CYP3A4) were evaluated using 150-donor pooled human liver microsomes (purchased from Corning, Cat. No.: 452117). The influence of different concentrations of each compound to be tested on metabolic responses of phenacetin (CYP1A2), diclofenac sodium (CYP2C9), S-mephenytoin (CYP2C19), bufuralol hydrochloride (CYP2D6), and midazolam (CYP3A4) was determined by liquid chromatography-mass spectrometry (LC/MS/MS). […] Then 200 μL of acetonitrile solution containing 3% formic acid and 40 nM internal standard verapamil was added and centrifuged at 4000 rpm for 50 min. The mixture was cooled on ice for 20 min and centrifuged at 4000 rpm for 20 min to precipitate the protein. Then 200 μL of supernatant was analyzed by LC-MS/MS. The peak area was calculated from the chromatogram. The residual activity ratio (%) was calculated according to the following equation: Peak area ratio=metabolite peak area/internal standard peak area Residual activity ratio (%)=peak area ratio of compounds-to-be-tested group/peak area ratio of blank group The half inhibitory concentration (IC50) for CYP was calculated by Excel XLfit 5.3.1.3.

[2] = Solubility (PBS pH 7.4) of compound solids; type: physicochemical; details: aqueous buffer, thermodynamic from solid, PBS pH 7.4, 25° C.
Procedure: The solubility (PBS pH 7.4) of compound solids to be tested was determined by LC/MS/MS. Approximately 1 mg of each compound powder was accurately weighed into a glass vial, and DMSO was added in a volume of 1 mL per milligram of compound. […] In 490 μL of water and acetonitrile (1:1) containing an internal standard, 5 μL of 1 mg/mL solution and 5 μL of PBS pH 7.4 solution were mixed to prepare 10 μg/mL standard concentration solution of the sample to be tested. Then 10 μL of 10 μg/mL solution was diluted in 90 μL of water and acetonitrile (1:1) containing an internal standard to prepare 1 μg/mL standard concentration solution of the sample to be tested. The dilution factor of the standard solution can be adjusted according to the strength of response signals in LC/MS. Approximately 1 mg of each compound powder was accurately weighed into a glass vial, and PBS pH 7.4 solution was added in a volume of 1 mL per milligram of compound. A stir bar was added to each vial, and the solubility sample vial was shaken at 1100 rpm at 25° C. for 24 h. After shaking, the stir bar was removed, and the sample was transferred to a filter plate and filtered using a vacuum manifold. […]
The resulting samples were determined by LC/MS/MS. The sample solubility was calculated from peak areas of the solution of the compound to be tested and the standard concentration solution, according to the following equation: […]

[3] = Metabolic stability in vitro in human hepatocytes; type: in vitro ADME; details: read-out: Intrinsic clearance
Procedure: The concentration of each compound in the reaction system was measured by LC/MS/MS to calculate the intrinsic clearance of the compounds to be tested, and evaluate the metabolic stability in vitro in human hepatocytes.
To the incubation plate, 198 μL of 0.5×10^6 cells/mL human hepatocyte mixture and 2.0 μL of 100 μM compound to be tested or positive control were added to initiate reaction. Incubation was performed at 900 rpm at 37° C. […] Then the mixture was vortex-mixed for 5 min. […] Then 100 μL of supernatant of each compound was transferred to a 96-well sample plate, and 100 μL of purified water was added to dilute the sample.
The resulting samples were quantified by ion chromatograms. The residual rate was calculated from peak areas of the compounds to be tested or the positive control. The slope k was determined using Microsoft Excel by linear regression of natural logarithm of the residual rate to the incubation time. The intrinsic clearance (in vitro CLint, μL/min/10^6 cells) was calculated from the slope value according to the following equation: […]

CYP3A4 = CYP3A4 (Homo sapiens (Human), UniProt P08684); experiment: CYP enzyme inhibition in pooled human liver microsomes (midazolam); type: in vitro ADME
Chain of CYP3A4 (P08684 whole entry): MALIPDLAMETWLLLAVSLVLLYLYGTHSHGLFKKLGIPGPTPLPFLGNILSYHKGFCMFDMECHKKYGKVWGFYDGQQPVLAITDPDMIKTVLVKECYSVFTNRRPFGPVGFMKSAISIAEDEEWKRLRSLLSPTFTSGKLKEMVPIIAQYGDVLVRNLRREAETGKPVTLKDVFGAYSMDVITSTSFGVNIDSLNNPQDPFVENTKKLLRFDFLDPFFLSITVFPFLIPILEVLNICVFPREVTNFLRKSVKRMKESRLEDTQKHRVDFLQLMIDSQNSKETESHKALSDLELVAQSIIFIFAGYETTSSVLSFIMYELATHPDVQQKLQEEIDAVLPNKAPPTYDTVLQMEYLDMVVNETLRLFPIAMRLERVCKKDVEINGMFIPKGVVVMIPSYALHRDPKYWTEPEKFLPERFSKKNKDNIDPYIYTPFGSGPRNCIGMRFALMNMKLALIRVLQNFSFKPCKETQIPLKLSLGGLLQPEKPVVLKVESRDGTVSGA
Procedure: as §1

[4] = Metabolic stability in vitro in rat hepatocytes; type: in vitro ADME; details: read-out: Intrinsic clearance
Procedure: The concentration of each compound in the reaction system was measured by LC/MS/MS to calculate the intrinsic clearance of the compounds to be tested, and evaluate the metabolic stability in vitro in rat hepatocytes.
To the incubation plate, 198 μL of 0.5×10^6 cells/mL rat hepatocyte mixture and 2.0 μL of 100 μM compound to be tested or positive control were added to initiate reaction. Incubation was performed at 900 rpm at 37° C. […] Then the mixture was vortex-mixed for 5 min. […] Then 100 μL of supernatant of each compound was transferred to a 96-well sample plate, and 100 μL of purified water was added to dilute the sample. The resulting samples were quantified by ion chromatograms. The residual rate was calculated from peak areas of the compounds to be tested or the positive control. The slope k was determined using Microsoft Excel by linear regression of natural logarithm of the residual rate to the incubation time. The intrinsic clearance (in vitro CLint, μL/min/10^6 cells) was calculated from the slope value according to the following equation: […]

CYP2C9 = CYP2C9 (Homo sapiens (Human), UniProt P11712); experiment: CYP enzyme inhibition in pooled human liver microsomes (diclofenac sodium); type: in vitro ADME
Chain of CYP2C9 (P11712 whole entry): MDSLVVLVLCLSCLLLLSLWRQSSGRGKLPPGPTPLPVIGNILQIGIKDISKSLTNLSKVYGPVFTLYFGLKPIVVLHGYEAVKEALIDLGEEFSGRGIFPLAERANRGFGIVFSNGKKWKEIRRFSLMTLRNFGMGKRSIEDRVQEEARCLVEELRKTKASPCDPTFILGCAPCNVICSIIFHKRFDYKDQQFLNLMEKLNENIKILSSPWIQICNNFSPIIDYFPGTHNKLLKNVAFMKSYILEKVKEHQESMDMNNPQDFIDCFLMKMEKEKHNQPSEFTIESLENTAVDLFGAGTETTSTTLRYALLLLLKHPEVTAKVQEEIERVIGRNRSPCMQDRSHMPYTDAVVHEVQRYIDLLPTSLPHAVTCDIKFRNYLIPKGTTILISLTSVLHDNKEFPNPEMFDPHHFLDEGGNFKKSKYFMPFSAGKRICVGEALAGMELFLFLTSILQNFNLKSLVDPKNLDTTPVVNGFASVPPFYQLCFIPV
Procedure: as §1

- Papp A→B at 2 h, 5 μM ([1]; Caco-2, 5 μM, 2 h, apical to basolateral): 4.9 ×10⁻⁶ cm/s
- Papp B→A at 2 h, 5 μM ([1]; Caco-2, 5 μM, 2 h, basolateral to apical): 17.6 ×10⁻⁶ cm/s
- efflux ratio at 2 h, 5 μM ([1]; Caco-2, Papp (B−A)/Papp (A−B)): 3.6
- IC50 (CYP1A2): > 30 µM
- solubility at 24 h ([2]; read-out: Calculated solubility): 181 µM
- solubility at 24 h ([2]; read-out: Solubility): 99.7 µg/mL
- hepatocyte CLint at 1 μM [3]: < 1 µL/min/1e6 cells
- IC50 (CYP3A4): > 30 µM
- hepatocyte CLint at 1 μM [4]: < 1 µL/min/1e6 cells
- IC50 (CYP2C9): 28.9 µM
SMILES: COc1ncnc(C2CC2)c1-c1ncc2c(n1)N(Cc1ccc(-c3nc(C(F)(F)F)cn3C)cc1)CC(=O)N2C [Compound 11, 2-(4-cyclopropyl-6-methoxypyrimidin-5-yl)-5-methyl-8-(4-(1-methyl-4-(trifluoromethyl)-1H-imidazol-2-yl)benzyl)-7,8-dihydropteridin-6(5H)-one]
